Paper PMC11123961, “Design, Synthesis, and Biological Evaluation of the Quorum-Sensing Inhibitors of Pseudomonas aeruginosa PAO1” (Molecules, 2024)

Columns and labels:
[1] = system: P. aeruginosa PAO1 biofilms; test: Biofilm quantification, crystal violet assay; assay type: cell-based, Pseudomonas aeruginosa; conditions: Pseudomonas aeruginosa, PAO1
Method: 3.2.3. Biofilm Quantification Assays
The crystal violet assay was used to quantitatively analyze the biofilm, as previously described. P. aeruginosa PAO1 log phase was diluted 100 times with fresh LB medium and incubated for 3.5 h at 37 °C and 150 rpm. After that, the P. aeruginosa PAO1 bacterial culture was added to the 96-well plate. P. aeruginosa PAO1 bacterial culture in 90 μL was added to the experimental group, and 10 μL of the test compound at a final concentration of 325 μM, 162.5 μM, 81.25 μM, 40 μM, 20 μM, and 10 μM. Each well received 100 μL of bacterial culture for the control group and 100 μL of fresh LB medium for the blank group. After 20 h of incubation at 37 °C, the bacterial culture was removed from the 96-well plate, and it was dried after three PBS washes. Each well received […] of 0.1% crystal violet (CV) for a 15 min staining period. Each well was washed three times with PBS after the CV was removed. Lastly, each well received 150 μL of 33% glacial acetic acid, and a Biotek multi-function microplate reader was used to measure the absorbance value at 595 nm. The biofilm inhibition rate was calculated as follows = (OD595 blank − OD595 sample)/OD595 blank × 100%.

[2] = system: P. aeruginosa PAO1 rhamnolipid; test: Rhamnolipid quantification assay (orcinol); assay type: cell-based, Pseudomonas aeruginosa
Method: The rhamnolipid quantification assay was as follows: sulfuric acid–orcinol concentrated solution was used to examine the compound’s impact on P. aeruginosa PAO1 rhamnolipid. Initially, 50 μg/mL, 100 μg/mL, 200 μg/mL, and 400 μg/mL of a prepared solution of rhamnose standard at a concentration of 1 mg/mL in tilled water were diluted. Subsequently, 900 μL of 0.19% orcinol-concentrated sulfuric acid solution (0.19% orcinol (w/v), 50% H2SO4) was mixed with 100 μL of each concentration of rhamnose standard solution, and the mixture was incubated for 30 min at 80 °C in a water bath. After cooling to 25 °C, the OD value at 421 nm was measured. A standard curve of rhamnose concentration–absorbance values was established using Excel software 2019.
After cultivating P. aeruginosa PAO1 in LB medium for a logarithmic growth phase at 37 °C and 150 rpm, the bacterial culture was diluted with PPGAS solution (20 mM KCl, 20 mM NH4Cl, 0.5% glucose, 1.6 mM MgSO4, 120 mM Tris-HCl, and 1.0% peptone) to OD600 = 0.05. […] After centrifuging the bacterial cultures for 10 min at 1665 g, the supernatants were gathered. After extracting the supernatants twice using ethyl acetate, the organic layers were gathered and allowed to dry out at room temperature overnight. After resuspending the solid product in deionized water, 100 μL was added to 900 μL of 0.19% orcinol in 50% H2SO4, and the mixture was incubated for 30 min at 80 °C in a water bath. After cooling to 25 °C, the OD value at 421 nm was measured. The rhamnolipid content in the sample was determined according to a rhamnose standard curve (rhamnolipid content = 2.5 × rhamnose content).

[3] = system: P. aeruginosa PAO1 swarming motility; test: Swarming motility analysis; assay type: cell-based, Pseudomonas aeruginosa; conditions: 40 μM, 81.25 μM and 162.5 μM, swarming agar plates
Method: 3.2.6. Swarming Motility Analysis
After being inoculated into LB medium, P. aeruginosa PAO1 was cultivated at 37 °C and 150 rpm until OD600 = 1.0. Then, 1 μL of P. aeruginosa PAO1 bacterial medium was inoculated into the center of swarming solid medium (0.8% nutrient broth (BD), 0.5% glucose, 0.3% agar (BD)) and cultured at 30 °C for 16 h. Then, the colonies of the swarming plate were picked and added to the center of the cooled swarming solid medium (0.8% nutrient broth (BD), 0.5% glucose, 0.5% agar (BD)), which had been supplemented with compounds and cultured at 30 °C for 24 h.

[4] = system: wildtype Caenorhabditis elegans N2 infected with P. aeruginosa PAO1; test: C. elegans survival assay; assay type: in vivo
From the text: 3.2.7. C. elegans Survival Assay
The negative control was the PGS agar plate coated with E. Coli OP50. Next, 50 wildtype C. elegans N2 strain-synchronized nematodes (L4 stage) were chosen and placed onto the plates. […] When the nematodes in the study were immobile, they were deemed dead. The number of nematodes that survived was tabulated to generate a survival curve.

[5] = Pharmacokinetics in male CD1 mice; assay type: in vivo
Method: Beijing Pharmaron Inc. carried out pharmacokinetic studies relating to compound Y-31 in mice. All of the animals were kept in a pathogen-free barrier animal facility, and the company’s Animal Care and Use Committee approved the experiments. On the day of administration, the sample solution was made into a 5, 20 mg/kg solution. Following a single dosage of compound Y-31 either intravenously (5 mg/kg, IV) or orally (20 mg/kg, PO) at 0.25, 0.5, 1, 2, 4, 6, 8, and 24 h post-administration, blood samples were taken from CD1 male mice (n = 3). After that, the plasma was centrifuged for […] at 4000 g and 4 °C to yield. The plasma was diluted 3 times with water. For quantitative analysis, a measurement of 2 µL of diluted supernatant was put into the LC/MS/MS apparatus. […] Phoenix WinNonlin 8.0 software was applied to calculate the pharmacokinetic parameters.

[6] = mouse, plasma, IV, 5 mg/kg, male CD1 mice
[7] = mouse, plasma, PO, 20 mg/kg, male CD1 mice

Question: Which results are given for O=C(CCCOc1ccc(I)cc1)NN1CCCOC1=O [Y-31]?
Answer: inhibition at 40 µM ([1]; 40 μM, read-out: P. aeruginosa PAO1 biofilm inhibition rate): 40.4%; inhibition at 20.3125 µM ([1]; concentration 20.3125 (unit not given in Table S1; μM in method), 20 h, read-out: Inhibition ratio of biofilm): 21.1%; inhibition at 40.625 µM ([1]; concentration 40.625 (unit not given in Table S1; μM in method), 20 h, read-out: Inhibition ratio of biofilm): 40.4%; inhibition at 81.25 µM ([1]; concentration 81.25 (unit not given in Table S1; μM in method), 20 h, read-out: Inhibition ratio of biofilm): 39.5%; inhibition at 162.5 µM ([1]; concentration 162.5 (unit not given in Table S1; μM in method), 20 h, read-out: Inhibition ratio of biofilm): 42.1%; inhibition at 325 µM ([1]; concentration 325 (unit not given in Table S1; μM in method), 20 h, read-out: Inhibition ratio of biofilm): 41%; Inhibition rate of rhamnolipid ([2]; 162.5 μM): 6.1%; inhibition at 40 µM ([2]; Pseudomonas aeruginosa, PAO1, read-out: Inhibition rate of rhamnolipid, 40 μM): 0.4%; inhibition at 81.5 µM ([2]; Pseudomonas aeruginosa, PAO1, read-out: Inhibition rate of rhamnolipid, 81.5 μM): 5.8%; inhibition at 162.5 µM ([2]; Pseudomonas aeruginosa, PAO1, read-out: Inhibition rate of rhamnolipid, 162.5 μM): 6.13%; Swarming motility compared to the control group [3]: significantly reduced swarming motility; Average survival rate of infected nematodes, Y-31 combined with Tob compared with Y-31 or Tob alone ([4]; Y-31 162.5 μM + Tob 0.25 μg/mL): significantly improved; Improvement of the survival rate of infected nematodes (average) ([4]; after 48 h, agent alone: Y-31 162.5 μM, Tob 0.25 μg/mL): 9.33%; AUC [5, 6]: 0.935 µg·h/mL; Cmax [5, 6]: 3.29 µg/mL; Tmax [5, 6]: 4.8 min; half-life [5, 6]: 7.8 min; bioavailability ([5]; mouse, plasma, PO, 20 mg/kg vs IV 5 mg/kg, male CD1 mice, read-out: F (bioavailability)): 30.4%; AUC [5, 7]: 1.1 µg·h/mL; Cmax [5, 7]: 1.28 µg/mL; Tmax [5, 7]: 15 min; half-life [5, 7]: 311 min; Clinical symptoms during the pharmacokinetic trial ([5]; single dose 5 mg/kg IV or 20 mg/kg PO, CD1 male mice): no unusual clinical symptoms were noticed
